Reference: article PMC12693135, “Ocular Toxicity and Mechanistic Investigation for Berberine and Its Metabolite Berberrubine on Zebrafish” (Molecules, 2025)

Tests used:
[1] = system: wild-type AB strain zebrafish larvae; assay: Zebrafish visual motor response (locomotor behavior, dark/light); type: in vivo, zebrafish (Danio rerio); conditions: for swimming pattern (trajectories) upon light stimulation: first 30 s of light stimulation, compared to controls
Description: Wild-type larvae (6 hpf, 30 per group) were incubated with BBR at the concentrations of 20, 50, 100, and 200 µM or M1 at the concentrations of 20, 50, 100, 200, 400, and 625 µM for 5 days. At 120 hpf, larvae were tested in a 96-well plate (1 larva/well, 12 per group). After 10 min acclimation, light-dark transition tests were performed (5 min dark to 5 min light, repeated 3 times), with recordings every 1 min for 40 min. The trajectory and 1 min movement distance were recorded by Behavioral Tracking System: Daniovision, Zebralab 3.3 (ViewPoint, Civrieux, France). Data were processed in Excel (Microsoft, Redmond, WA, USA). Metrics included 1 min total distance, movement time, and average speed. Averages of 12 larvae per group were used for bar graphs; comparisons with the control group were analyzed via t-test. The experiment was conducted three times in parallel.

[2] = system: transgenic mitochondrial fluorescent zebrafish (strain Tg(Xla.Eef1a1:mlsEGFP)); assay: Fluorescence microscopy for mitochondrial function; type: in vivo, zebrafish (Danio rerio); conditions: 5-dpf larvae; BBR 25 or 50 μM, M1 100 or 200 μM
Description: Strain Tg(Xla.Eef1a1:mlsEGFP) zebrafish larvae (6 hpf) were treated with BBR (25 or 50 μM), M1 (100 or 200 μM), or 0.05% DMSO (control) until 5 dpf, with 30 larvae per treatment and three biological replicates (total 90 larvae per group). Then, 10 larvae were randomly selected from each experimental group and imaged using a motorized-focus continuous-zoom fluorescence microscope AZ100 (Nikon, Japan) with the magnification of 10–40× and exposure time of 200–500 ms. The fluorescence intensity of ocular apoptotic cells in zebrafish larvae and mitochondria throughout the zebrafish were measured and analyzed using NIS-Elements (Nikon Imaging Software, Nikon, Japan). The experiment was conducted three times in parallel.

zebrafish larvae eye = assay: Zebrafish eye length and area experiment; type: in vivo, zebrafish (Danio rerio); conditions: zebrafish larvae at 5 dpf vs 0.05% DMSO control; BBR 20-200 µM, M1 20-625 µM
Description: Half of the epiboly embryos (6 hpf under standard conditions) were exposed to solutions (2 mL) of BBR at the concentrations of 20, 50, 100, and 200 µM or M1 at the concentrations of 20, 50, 100, 200, 400, and 625 µM and cultured under standard conditions, taking 0.05% DMSO in saline as the control. The experiment was performed three times using 30 embryos per concentration (n = 90 per group in total). At 5 dpf, embryos were washed 3× with normal medium, transferred to fresh medium, and photographed by E3ISPM20000KPA digital camera (ToupTek, Hangzhou, China), with the magnification of 10–40× and exposure time of 200–500 ms. Then the eye length and area were measured and analyzed using Image J V2.1.X (NIH, Bethesda, MD, USA). Data (eye length/area) were expressed as mean ± SD, compared with the control group, and plotted.

[3] = MTT cytotoxicity assay on HCE-T cells; type: cell-based, human; conditions: human, HCE-T human corneal epithelial cells; HCE-T cells, 24 h incubation
Description: The human corneal epithelial cell line HCE-T (Cellosaurus accession: CVCL_1272, RRID: CVCL_1272, RCB: RCB2280) was purchased from Procell Life Science and Technology Co., Ltd. (Wuhan, China). […] were cultured in high-glucose Dulbecco’s Modified Eagle Medium (DMEM), which was purchased from Procell Life Science and Technology Co., Ltd. (Wuhan, China). The high-glucose DMEM was DMEM basic medium supplemented with 15% fetal bovine serum (Procell), 1% penicillin/streptomycin (Procell), 5 μg/mL insulin, and 10 ng/mL human epidermal growth factor (Procell).
HCE-T cells were seeded in 96-well plates (8 × 10^3 cells/well, 100 μL medium) and cultured overnight at 37 °C, 5% CO2 for adhesion. BBR or its metabolites at various concentrations (BBR and M3 at the concentrations of 31.25, 62.5, 125, 250 and 500 µM, M1 and M4 at the concentrations of 25, 50, 100, 200 and 400 µM) in 0.5% DMSO were added and incubated for 24 h, with 0.5% DMSO in culture medium as the vehicle control. Subsequently, 20 μL MTT (5 mg/mL) was added to each well and the cells were cultured at 37 °C for 4 h. Then, the culture medium was removed, and 150 μL DMSO was added to dissolve formazan crystals and the absorbance at 570 nm was measured on a Synergy H1 multifunctional microplate reader (Biotek, Winooski, VT, USA). The IC50 values of test compounds were calculated by Graphpad Prism 8.5 (GraphPad Software Co., San Diego, CA, USA).

[4] = system: wild-type AB strain zebrafish; assay: Determination of ATP and ROS levels in zebrafish larvae; type: in vivo, zebrafish (Danio rerio); conditions: BBR 25 or 50 μM, M1 100 or 200 μM, 5 dpf; for ROS levels: relative to control
Description: Wild-type AB strain zebrafish (6 hpf) were treated with BBR (25 or 50 μM), M1 (100 or 200 μM), or 0.05% DMSO (control) until 5 dpf, with 30 larvae per treatment and three biological replicates (total 90 larvae per group). Subsequently, 3 larvae were pooled per sample (10 samples per group) and the entire zebrafish was transferred directly into a 96-well plate for fluorescence detection. Cellular ATP content was determined using the CellTiter-Glo® Luminescent Cell Viability Assay Kit (Promega, Madison, WI, USA), which relies on a bioluminescent principle (luciferase-luciferin reaction). Cellular ROS levels were measured using CM-H2DCFDA kits (Invitrogen, Carlsbad, CA, USA), based on the oxidation of non-fluorescent CM-H2DCFDA to fluorescent DCF by ROS. Reagents were prepared and reactions were performed according to the manufacturers’ instructions, with luminescence detected using a Spark multifunctional microplate reader (Tecan, Grödig, Austria).

Compound | average swimming speed, dark conditions ([1]; dark, 200 μM) | swimming distance and duration, dark conditions ([1]; dark, concentrations above 100 μM) | swimming pattern (trajectories) upon light stimulation [1] | locomotor metrics (distance, time, speed) upon light stimulation ([1]; light stimulation, 200 μM) | mitochondrial density [2] | eye length and eye area (zebrafish larvae eye) | IC50 at 24 h [3] [µM] | intracellular ATP levels [4] | ROS levels [4] | average swimming distance ([1]; 625 μM) | swimming duration ([1]; concentrations above 200 μM) | locomotion in the dark ([1]; dark, 20-625 µM)
COc1ccc2cc3[n+](cc2c1OC)CCc1cc2c(cc1-3)OCO2 [BBR, berberine] | decreased average speed | significantly reduced | irregular and disorganized swimming patterns | significant reductions in all three locomotor metrics | decrease in the mitochondrial density | significantly and dose-dependently reduced | 301 | significantly reduced | marked and dose-dependent increase | – | – | –
COc1ccc2cc3[n+](cc2c1O)CCc1cc2c(cc1-3)OCO2 [M1, berberrubine] | – | – | irregular and disorganized swimming patterns | – | decrease in the mitochondrial density | significantly and dose-dependently reduced | 232 | significantly reduced | marked and dose-dependent increase | reduced average swimming distance | decreased swimming duration | did not affect locomotion in the dark
